Measurements taken from US8026359B2, “Fungicidal heterocyclic amines” (E.I. du Pont de Nemours and Company, priority 2007, dated 2011).
Marks after values point to notes of the source that are not given here.

Legend:
Format in all cases: in vivo
[1] = test system: Puccinia recondita f. sp. tritici; assay: Test B: wheat leaf rust, preventive spray on wheat seedlings; conditions: 200 ppm, 100 = 100% disease control, 0 = no control relative to controls; for pest or weed control at 200 ppm: Puccinia recondita, 192 h, read-out: Test B disease control rating
Description: (§1) General protocol for preparing test suspensions for Tests A-R: The test compounds were first dissolved in acetone in an amount equal to 3% of the final volume and then suspended at the desired concentration (in ppm) in acetone and purified water (50/50 mix) containing 250 ppm of the surfactant Trem® 014 (polyhydric alcohol esters). The resulting test suspensions were then used in tests A-R. In Tests A-M, compounds were sprayed as a 200 ppm test suspension (equivalent to a rate of 500 g/ha) or as a 40 ppm test suspension to the point of runoff on the test plants. In Tests N-R, compounds were sprayed as a 100 g/ha test suspension (equivalent to a rate of 100 ppm) on the test plants at an application volume of 1000 L/ha. The test suspension was sprayed to the point of run-off on wheat seedlings.

Alternaria solani = assay: Test H: tomato early blight, preventive spray on seedlings; conditions: for pest or weed control at 200 ppm: Alternaria solani, 168 h, read-out: Test H disease control rating
Description: as §1

Fusarium graminearum = assay: whole plant or invertebrate; conditions: for pest or weed control at 200 ppm: Fusarium graminearum, in Triticum aestivum, 192 h, read-out: Test E disease control rating; for Test E disease control rating: 200 ppm, 100 = 100% disease control, 0 = no control relative to controls
Septoria nodorum = assay: Test C: wheat glume blotch, preventive spray on wheat seedlings; conditions: 200 ppm, 100 = 100% disease control, 0 = no control relative to controls; for pest or weed control at 200 ppm: Parastagonospora nodorum, 216 h, read-out: Test C disease control rating
Description: as §1

[2] = test system: Colletotrichum orbiculare; assay: Test I: cucumber Colletotrichum anthracnose, preventive spray on cucumber seedlings; conditions: 100 = 100% disease control, 0 = no control relative to controls; for pest or weed control at 200 ppm: Colletotrichum orbiculare, 144 h, read-out: Test I disease control rating; for Test I disease control rating: 200 ppm
Description: as §1, with “cucumber” for “wheat”

Septoria tritici = assay: Test D: wheat leaf blotch, preventive spray on wheat seedlings; conditions: 200 ppm, 100 = 100% disease control, 0 = no control relative to controls; for pest or weed control at 200 ppm: Zymoseptoria tritici, 504 h, read-out: Test D disease control rating
Description: as §1

Botrytis cinerea = assay: Test F: tomato Botrytis, preventive spray on tomato seedlings; conditions: for pest or weed control at 200 ppm: Botrytis cinerea, 120 h, read-out: Test F disease control rating
Description: as §1, with “tomato” for “wheat”

[3] = test system: Erysiphe graminis f. sp. tritici; assay: Test A: wheat powdery mildew, preventive spray on wheat seedlings; conditions: 200 ppm, 100 = 100% disease control, 0 = no control relative to controls
Description: as §1

[4] = 200 ppm, 100 = 100% disease control, 0 = no control relative to controls

SMILES	pest or weed control at 200 ppm [1]	pest or weed control at 200 ppm (Alternaria solani; [4])	pest or weed control at 200 ppm (Fusarium graminearum)	pest or weed control at 200 ppm (Septoria nodorum)	pest or weed control at 200 ppm [2]	pest or weed control at 200 ppm (Septoria tritici)	pest or weed control at 200 ppm (Botrytis cinerea; [4])	Test B disease control rating [1]	Test H disease control rating (Alternaria solani; [4])	Test E disease control rating (Fusarium graminearum)	Test C disease control rating (Septoria nodorum)	Test I disease control rating [2]	Test D disease control rating (Septoria tritici)	Test F disease control rating (Botrytis cinerea; [4])	Test H disease control rating (Alternaria solani; 40 ppm (marked *))	Test F disease control rating (Botrytis cinerea; 40 ppm (marked *))	Test A disease control rating [3]	pest or weed control at 200 ppm ([3]; Blumeria graminis, 192 h, read-out: Test A disease control rating)
COC[C@H](C)Nc1nccc(-c2ncnc(Nc3cccc(F)c3)n2)n1 [Compound 5, N-(3-fluorophenyl)-4-[2-[[(1S)-2-methoxy-1-methylethyl]amino]-4-pyrimidinyl]-1,3,5-triazin-2-amine]	100%	0%	98%	100%	99%	98%	80%	–	–	–	–	–	–	–	–	–	–	–
COCC(C)(C)Nc1nccc(-c2ncnc(Nc3cccc(F)c3)n2)n1 [Compound 6]	–	–	–	–	–	–	–	97%	98%	84%	100%	0%	58%	85%	–	–	–	–
CC(CO)Nc1nccc(-c2ncnc(Nc3cccc(F)c3)n2)n1 (stereo not drawn) [Compound 7]	–	–	–	–	–	–	–	99%	0%	0%	100%	96%	87%	0%	–	–	–	–
CC(=O)OCC(C)Nc1nccc(-c2ncnc(Nc3cccc(F)c3)n2)n1 (stereo not drawn) [Compound 8]	–	–	–	–	–	–	–	97%	41%	77%	95%	0%	42%	0%	–	–	–	–
Fc1cccc(Nc2ncnc(-c3ccnc(NC4CC4)n3)n2)c1 [Compound 9]	–	–	–	–	–	–	–	100%	99%	80%	99%	100%	20%	73%	–	–	–	–
CC(C)(C)Nc1nccc(-c2ncnc(Nc3cccc(F)c3)n2)n1 [Compound 10]	–	–	–	–	–	–	–	93%	97%	61%	100%	99%	10%	0%	–	–	–	–
COC[C@H](C)Nc1nccc(-c2ncnc(Nc3cccc(I)c3)n2)n1 [Compound 12]	–	–	–	–	–	–	–	79%	98%	96%	100%	–	0%	37%	–	–	–	–
COC[C@H](C)Nc1nccc(-c2ncnc(Nc3ccc(F)cc3)n2)n1 [Compound 13]	–	–	–	–	–	–	–	100%	–	96%	100%	–	26%	87%	98* %	–	–	–
COC[C@H](C)Nc1nccc(-c2ncnc(Nc3ccc(Cl)c(Cl)c3)n2)n1 [Compound 14]	–	–	–	–	–	–	–	79%	95%	92%	100%	–	0%	55%	–	–	–	–
COC[C@H](C)Nc1nccc(-c2ncnc(Nc3ccc(Cl)cc3)n2)n1 [Compound 15]	–	–	–	–	–	–	–	32%	90%	0%	92%	93%	0%	0%	–	–	–	–
COC[C@H](C)Nc1nccc(-c2ncnc(Nc3ccccc3F)n2)n1 [Compound 17]	–	–	–	–	–	–	–	86%	90%	0%	99%	98%	66%	97%	–	–	–	–
COC[C@H](C)Nc1nccc(-c2ncnc(Nc3ccc(C)cc3)n2)n1 [Compound 20]	–	–	–	–	–	–	–	74%	96%	91%	100%	0%	20%	99%	–	–	–	–
COC[C@H](C)Nc1nccc(-c2ncnc(Nc3ccc(C)c(C)c3)n2)n1 [Compound 24]	–	–	–	–	–	–	–	97%	100%	99%	100%	–	24%	70%	–	–	–	–
COC[C@H](C)Nc1nccc(-c2ncnc(Nc3cc(Cl)cc(Cl)c3)n2)n1 [Compound 28]	–	–	–	–	–	–	–	73%	85%	90%	99%	96%	0%	–	–	84* %	–	–
COC[C@H](C)Nc1nccc(-c2ncnc(Nc3ccc(F)c(F)c3)n2)n1 [Compound 29]	–	–	–	–	–	–	–	100%	–	99%	100%	–	90%	91%	97* %	–	–	–
CSCC(C)Nc1nccc(-c2ccnc(Nc3cccc(F)c3)c2)n1 (stereo not drawn) [Compound 94, 4-[2-[(3-fluorophenyl)amino]-4-pyridinyl]-N-[1-methyl-2-(methylthio)ethyl]-2-pyrimidinamine]	89%	0%	0%	95%	0%	69%	72%	–	–	–	–	–	–	–	–	–	–	–
CSCC(C)Nc1nccc(-c2ccnc(Nc3cccc(Cl)c3)c2)n1 (stereo not drawn) [Compound 95, 4-[2-[(3-chlorophenyl)amino]-4-pyridinyl]-N-[1-methyl-2-(methylthio)ethyl]-2-pyrimidinamine]	88%	0%	0%	94%	0%	77%	0%	–	–	–	–	–	–	–	–	–	–	–
COCC(C)Nc1nccc(-c2ccnc(Nc3c(Cl)cccc3C(F)(F)F)c2)n1 (stereo not drawn) [Compound 97]	–	–	–	–	–	–	–	97%	–	48%	100%	93%	67%	99%	–	–	0%	–
FC(F)(F)c1cccc(Cl)c1Nc1cc(-c2ccnc(NC3CCOCC3)n2)ccn1 [Compound 98]	–	–	–	–	–	–	–	99%	–	97%	99%	0%	83%	91%	–	–	89%	–
COCC(C)Nc1nccc(-c2cc(Nc3cccc(F)c3)ncn2)n1 (stereo not drawn) [Compound 109, N^6′-(3-fluorophenyl)-N^2-(2-methoxy-1-methylethyl) [4,4′-bipyrimidine]-2,6′-diamine]	96%	–	0%	94%	9%	5%	0%	–	–	–	–	–	–	–	–	–	–	0%
